Results published in patent US8778966B2, “Quinolinone derivatives as PARP and tank inhibitors” (Janssen Pharmaceutica, NV, priority 2007, dated 2014).

Assays:
TANK-2 enzyme = target: T1, TANK-2 enzyme (Homo sapiens, UniProt Q9H2K2); assay: In vitro Scintillation Proximity Assay (SPA) for TANK-2 inhibitory activity; format: biochemical; details: read-out: in vitro SPA assay TANK-2 pIC50 (converted)
T1 construct: made in house
T1 sequence (Q9H2K2 1-1166): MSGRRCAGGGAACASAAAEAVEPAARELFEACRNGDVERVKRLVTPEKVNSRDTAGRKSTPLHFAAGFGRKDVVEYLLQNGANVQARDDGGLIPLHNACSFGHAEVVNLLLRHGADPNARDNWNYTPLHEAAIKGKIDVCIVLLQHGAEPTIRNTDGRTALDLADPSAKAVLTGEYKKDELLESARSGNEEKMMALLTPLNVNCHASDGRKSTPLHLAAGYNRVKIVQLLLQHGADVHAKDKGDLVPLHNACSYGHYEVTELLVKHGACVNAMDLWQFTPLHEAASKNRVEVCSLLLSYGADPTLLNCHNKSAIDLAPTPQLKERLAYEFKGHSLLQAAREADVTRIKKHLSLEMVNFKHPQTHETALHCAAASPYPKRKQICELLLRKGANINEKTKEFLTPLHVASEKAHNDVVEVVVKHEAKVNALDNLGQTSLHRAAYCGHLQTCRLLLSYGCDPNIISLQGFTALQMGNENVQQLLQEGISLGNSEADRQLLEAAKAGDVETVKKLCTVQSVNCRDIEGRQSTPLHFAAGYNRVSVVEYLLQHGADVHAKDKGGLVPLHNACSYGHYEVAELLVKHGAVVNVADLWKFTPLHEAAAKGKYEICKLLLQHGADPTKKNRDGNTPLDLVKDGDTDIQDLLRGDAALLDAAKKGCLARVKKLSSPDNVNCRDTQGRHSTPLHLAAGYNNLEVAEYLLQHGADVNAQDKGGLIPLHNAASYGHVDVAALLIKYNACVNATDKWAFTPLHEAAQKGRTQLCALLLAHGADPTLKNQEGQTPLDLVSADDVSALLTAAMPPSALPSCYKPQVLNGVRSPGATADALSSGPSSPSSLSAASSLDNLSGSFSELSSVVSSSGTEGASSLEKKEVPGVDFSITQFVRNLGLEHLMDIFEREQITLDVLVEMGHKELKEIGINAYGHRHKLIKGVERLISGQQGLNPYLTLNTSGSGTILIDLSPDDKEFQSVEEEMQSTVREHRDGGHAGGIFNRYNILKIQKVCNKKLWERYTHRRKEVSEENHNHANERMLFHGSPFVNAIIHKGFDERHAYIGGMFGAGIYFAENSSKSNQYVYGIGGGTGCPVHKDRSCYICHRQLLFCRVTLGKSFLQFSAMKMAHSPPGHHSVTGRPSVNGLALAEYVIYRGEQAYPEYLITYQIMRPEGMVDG
In short: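 TANK-2 (8 μg/ml final) auto-poly(ADP-ribosyl)ation with [3H]-NAD+/NAD donor was run in Ni flash plates in Tris/HCl pH 7.4 buffer with DTT and MgCl2, 120 min at room temperature, then stopped with excess NAD and scintillation-counted. Blank-corrected cpm was expressed as % of enzyme control, and IC50 was linearly interpolated and reported as pIC50.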

PC3 cells = assay: EB1 Comet (microtubule disruption) assay; format: cell-based, human; details: 1 hour treatment; for minimal effective concentration: Homo sapiens, PC-3, 1 h, read-out: EB1 pLAC (converted)
In short: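 PC3 human prostate cancer cells exposed to compound for 1 h at 37 °C (0.6% DMSO final), methanol-fixed, immunostained for Eb1 and imaged at 20×. Value is the lowest active concentration (LAC): the concentration at which Eb1 foci are absent in at least 50% of treated cells.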

SMILES	IC50 (TANK-2 enzyme) [nM]	melting point [°C]	minimal effective concentration (PC3 cells) [µM]	EB1 pLAC (PC3 cells)
CCc1cc2ccc(C(C)(C#N)Cc3cccc(C#N)n3)cc2[nH]c1=O (single isomer, unassigned) [Compound 206]	50.1	121		
CCc1cc2ccc(C(C)(C#N)Cc3cccc(C#N)n3)cc2[nH]c1=O (single isomer, unassigned) [Compound 207]	31.6	133	0.1	
C#Cc1cccc(C[C@](C)(C#N)c2ccc3cc(CC)c(=O)[nH]c3c2)c1 [Compound 2]	398	125		
C#Cc1cccc(C[C@@](C)(C#N)c2ccc3cc(CC)c(=O)[nH]c3c2)c1 [Compound 3]	501	128	0.01	
CCc1cc2ccc(C(C#N)(CC)Cc3ccccc3)cc2[nH]c1=O (stereo not drawn) [Compound 32]	79.4	198	1	
COc1ccccc1-c1nc(CC(C)(C#N)c2ccc3cc(C)c(=O)[nH]c3c2)no1 (stereo not drawn) [Compound 33]	158	130		
Cc1cc2ccc(C(C)(C#N)Cc3cccc(C#N)c3)cc2[nH]c1=O (stereo not drawn) [Compound 34]	31.6	260	0.316	
Cc1cc2ccc([C@@](C)(C#N)Cc3cccc(C#N)c3)cc2[nH]c1=O [Compound 35]	316	233		
Cc1cc2ccc([C@](C)(C#N)Cc3cccc(C#N)c3)cc2[nH]c1=O [Compound 36]	200	226	0.316	
Cc1cc2ccc(C(C)(C#N)Cc3cccc(Cl)c3)cc2[nH]c1=O (stereo not drawn) [Compound 37]	79.4	242	3.16	
CC(C)c1cc2ccc(C(C)(C#N)Cc3ccccc3)cc2[nH]c1=O (stereo not drawn) [Compound 38]	501	178		
CC(=O)c1cc2ccc(C(C)(C#N)Cc3ccccc3)cc2[nH]c1=O (stereo not drawn) [Compound 39]	316	194		
CCc1cc2ccc(C(C)(C#N)Cc3cccc(CCC#N)c3)cc2[nH]c1=O (stereo not drawn) [Compound 169]	398	149		6
C=Cc1cccc(CC(C)(C#N)c2ccc3cc(CC)c(=O)[nH]c3c2)c1 (stereo not drawn) [Compound 172]	794	130	0.1	
CCc1cc2cc(F)c(C(C)(C#N)Cc3cccc(C#N)c3)cc2[nH]c1=O (stereo not drawn) [Compound 175]	100	202	1	
CCc1c(C)c2ccc(C(C)(C#N)Cc3cccc(C#N)c3)cc2[nH]c1=O (stereo not drawn) [Compound 181]	158	204	0.316	
CCc1cc2cc(OCCOC)c(C(C)(C#N)Cc3cccc(C#N)c3)cc2[nH]c1=O (stereo not drawn) [Compound 182]	31.6	130		
CCc1cc2ccc(C(C)(C#N)Cc3cccc(C#CCO)c3)cc2[nH]c1=O (stereo not drawn) [Compound 183]	794	182	< 0.0316	
CCc1cc2ccc(C(F)(C#N)Cc3ccccc3)cc2[nH]c1=O (stereo not drawn) [Compound 187]	316	176	5.62	
CCc1cc2ccc(C(C)(C#N)CN(C)Cc3ccccc3)cc2[nH]c1=O (stereo not drawn) [Compound 189]	2510	136	1	
CCc1cc2ccc(C(C)(C#N)C(C)c3ccccc3)cc2[nH]c1=O (stereo not drawn) [Compound 198]	794	198	0.316	
CCc1cc2ccc([C@](C)(C#N)[C@@H](C)c3ccccc3)cc2[nH]c1=O [Compound 199]	1260	250		
C#Cc1cccc(CC(C)(C#N)c2ccc3cc(CC)c(=O)[nH]c3c2)n1 (stereo not drawn) [Compound 211]	398	140	0.1	
CCc1cc2ccc(C(C)(C#N)Cc3cccc(N(C)C)n3)cc2[nH]c1=O (stereo not drawn) [Compound 213]	126	115	0.316	
CCc1cc2ccc(C(C)(C#N)Cc3cccc(I)n3)cc2[nH]c1=O (stereo not drawn) [Compound 214]	50.1	131	0.1	
CCOC(=O)c1cccc(CC(C)(C#N)c2ccc3cc(CC)c(=O)[nH]c3c2)n1 (stereo not drawn) [Compound 215]	2000	60	0.316	
CCc1cc2ccc(C(C)(C#N)Cc3cccc(COC)n3)cc2[nH]c1=O (stereo not drawn) [Compound 216]	1260	153	1	
CCc1cc2ccc(C(C)(C#N)Cc3cccc(CN)n3)cc2[nH]c1=O (stereo not drawn) [Compound 221]	251	65	3.16	
CCc1cc2ccc(C(C)(C#N)CC3CCc4ccccc4O3)cc2[nH]c1=O (stereo not drawn) [Compound 399]	100		0.316	
